# Experimental data reported in patent publication US20090012115A1 (Portola Pharmaceuticals, Inc., priority 2007, published 2009).
# What was measured:
# [1] = cited from earlier work
# leukotrienes = assay: In vivo determination of the levels of leukotrienes; set-up: species or system mice; conditions: Example 5; treated animals
# Source text: In vivo monitoring of gastrointestinal bleeding and determination of the levels of leukotrienes will be performed.
# platelets [2] = assay: Collagen-induced platelet aggregation (light transmittance aggregometry); type: cell-based, human; conditions: for anti-aggregatory activity, collagen-induced platelet aggregation: 1 μM, 100 nM, 350 nM
# Procedure: PRP-induced platelet aggregation are performed with arachidonic acid (between 200 μM and 1 mM), U46619 (a TP agonist) (between 0.5 μM and 5 μM) and collagen (around 4 μg/ml) as platelet agonists. Indomethacin and
# (§1) Light transmittance aggregometry (LTA) assays were performed by standard procedures, initiating platelet aggregation with collagen or arachidonic acid.
# [3] = tested on: platelets recruited on the collagen surface; assay: Real time perfusion chamber thrombosis assay (whole blood over collagen-coated chamber, fluorescent platelets); type: cell-based, human; conditions: for interaction with antithrombotic activity of clopidogrel: 12 healthy individuals on clopidogrel 75 mg/d, ifetroban spiked into whole blood, aspirin 325 mg/d over the third week; for antithrombotic activity versus aspirin: 100 nM or 350 nM spiked in vitro
# Procedure: The experiment was performed by perfusing whole blood anticoagulated with factor Xa inhibitor (10 μM) through a human collagen type III-coated perfusion chamber. Platelets were fluorescently labeled in vitro using Rhodamine 6G (1.25 μg/ml final concentration), and thrombosis was monitored in real time by measuring the amount of fluorescent platelets recruited on the collagen surface using fluorescence microscopy. The results are depicted in FIG. 3.
# The experiments are performed in the real time thrombosis perfusion chamber device. In this system, the real time thrombotic process triggered by perfusion of Factor Xa anticoagulated whole blood is studied using a collagen coated perfusion chamber at arterial shear rates.
# A dose response study of the antithrombotic and anti-aggregatory effects of vehicle control, indomethacin (from 10 nM to 10 uM), and ifetroban (from 10 nM to 3 uM) spiked in vitro in the blood of aspirin-intolerant individuals before, and after treatment with clopidogrel (75 mg/d for a minimum of 5 days, n≧10) is performed. Experiments are performed in the real time perfusion chamber assay under arterial shear rates conditions. […] By using indomethacin we can confirm that Cox-1 inhibition indeed can provide additional antithrombotic properties; however, the intolerance prevents the use of a COX-1 inhibitor.
# Real time perfusion chamber assays (RTTP) were performed using blood anticoagulated with Fxa inhibitor (10 uM 034) and perfused through collagen-coated capillaries (1100/sec). Thrombus formation on the collagen surface was monitored in real time using fluorescence microscopy to detect fluorescently labeled (R6G) platelets.
# [4] = tested on: platelet recruitment on the injured vessel wall; assay: Intravital microscopy, ferric chloride injury of mesenteric arteries; type: in vivo, mice; conditions: Example 5; for antithrombotic activity in P2Y12 heterozygous animals: P2Y12 heterozygous mice; for antithrombotic activity in wild type animals: wild type mice
# Procedure: The methodology utilized is intravital microscopy. In this system, injury of the mesenteric arteries is performed by topical application of a filter paper that has been previously soaked into a ferric chloride solution. Monitoring of the recruitment of fluorescently labeled platelets on the injured vessel wall is performed in real time using an inverted fluorescent microscope connected to a computer.
# platelets [5] = assay: Arachidonic acid-induced platelet aggregation (light transmittance aggregometry); type: cell-based, human; conditions: healthy volunteers and AERD patients; 1 μM, 350 nM, 100 nM; FIGS. 10A and 10B
# Procedure: as §1
# [6] = compared with clopidogrel; cited from earlier work
# P2Y12 ADP receptor = P2Y12 ADP receptor (Homo sapiens, UniProt Q9H244); conditions: cited from earlier work
# preformed thrombi = assay: Thrombus stability / dethrombosis of preformed thrombi; type: cell-based
# Source text: The addition of a TP antagonist to preformed thrombi caused dethrombosis (FIG. 5A).
# platelets [7] = conditions: cited from earlier work
# coronary arteries = coronary arteries of dogs; cited from earlier work
# [8] = Gresele et al.; cited from earlier work
# [9] = HOT trial, hypertensive patients, 75 mg/d vs placebo
# P2Y12 ADP receptor, sequence (Q9H244 whole entry): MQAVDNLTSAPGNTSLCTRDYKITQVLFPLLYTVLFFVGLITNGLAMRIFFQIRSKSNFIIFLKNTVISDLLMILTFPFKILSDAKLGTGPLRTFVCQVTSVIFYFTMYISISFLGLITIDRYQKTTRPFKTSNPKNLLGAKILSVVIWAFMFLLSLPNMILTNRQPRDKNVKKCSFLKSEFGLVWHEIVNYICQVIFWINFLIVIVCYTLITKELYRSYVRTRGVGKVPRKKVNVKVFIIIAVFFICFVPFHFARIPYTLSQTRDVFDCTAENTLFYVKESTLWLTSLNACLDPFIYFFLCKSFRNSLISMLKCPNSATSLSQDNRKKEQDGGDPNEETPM
compound,measurement,setting,value
"O=C(O)CC/C=C\CC[C@@H]1[C@@H](N2CCCCC2)[C@@H](O)C[C@@H]1OCc1ccc(-c2ccccc2)cc1 [GR 32191, [1R-[1α(Z),2β,3β,5α]]-(+)-7-[5-([1,1′-biphenyl]-4-ylmethoxy)-3-hydroxy-2-(1-piperidinyl)cyclopentyl]-4-heptenoic acid]",prevention of restenosis,[1]; CARPORT trial,lack activity in the prevention of restenosis
"CCCCCNC(=O)c1coc([C@H]2[C@@H](Cc3ccccc3CCC(=O)[O-])[C@@H]3CC[C@H]2O3)n1.[Na+] [ifetroban, [1S-(1α,2α,3α,4α)]-2-[[3-[4-[(pentylamino)carbonyl]-2-oxazolyl]-7-oxabicyclo[2.2.1]hept-2-yl]methyl]benzenepropanoic acid]",levels of leukotrienes,leukotrienes,maintained constant
same,"anti-aggregatory activity, collagen-induced platelet aggregation","platelets [2]; AERD patients, FIG. 8B",significant anti-aggregatory activity
same,concentrations at which aspirin effects on collagen-induced platelet aggregation and thrombosis were reproduced,"platelets [2]; AERD patients, FIG. 8B",> 100 nM
same,"anti-aggregatory activity, collagen-induced platelet aggregation","platelets [2]; healthy volunteers, FIG. 8A",significant anti-aggregatory activity
same,concentrations at which aspirin effects on collagen-induced platelet aggregation and thrombosis were reproduced,"platelets [2]; normal volunteers, FIG. 8A",> 100 nM
same,inhibition of thrombosis on a clopidogrel background,"[3]; 30 nM to 1 μM spiked into whole blood of normal volunteers treated with clopidogrel 75 mg/day for 2 weeks, FIG. 4",inhibited thrombosis to the same extent as aspirin
same,interaction with antithrombotic activity of clopidogrel,[3]; FIG. 4,synergized with the antithrombotic activity of clopidogrel
same,antithrombotic activity versus aspirin,"[3]; AERD patients, aspirin after desensitization, FIG. 7B",significant antithrombotic activity versus aspirin
same,antithrombotic activity versus aspirin,"[3]; healthy volunteers, FIG. 7A",significant antithrombotic activity versus aspirin
same,antithrombotic activity in P2Y12 heterozygous animals,[4],profound inhibition
same,antithrombotic activity in wild type animals,[4],at least similar antithrombotic activity
same,"anti-aggregatory activity, arachidonic acid-induced platelet aggregation",platelets [5],anti-aggregatory activity
CNc1cc2[nH]c(=O)n(-c3ccc(NC(=O)NS(=O)(=O)c4ccc(Cl)s4)cc3)c(=O)c2cc1F,pharmacokinetic properties,[6],superior pharmacokinetic properties to clopidogrel
same,de-aggregation of preformed thrombi,P2Y12 ADP receptor,de-aggregate preformed thrombi
same,inhibition of ADP-mediated platelet aggregation,P2Y12 ADP receptor,reversible inhibitor
"CCCCC[C@H](O)/C=C/[C@H]1C(=O)C[C@H](O)[C@@H]1C/C=C\CCCC(=O)O [PGD2, prostaglandin D2]",dethrombotic activity,"preformed thrombi; physiological concentrations added to aspirinated blood, FIG. 5C",induced a profound dethrombotic activity
CC(C)Cc1ccc(C(C)C(=O)O)cc1 (stereo not shown) [ibuprofen],effect of concomitant administration on antiaggregatory activity of aspirin,platelets [7]; Catella-Lawson et al.,reduce the antiaggregatory activity of aspirin
CCCCC[C@H](O)/C=C/[C@@H]1[C@@H](C/C=C\CCCC(=O)O)[C@H]2CO[C@@H]1C2 [U46619],thrombus stability,"preformed thrombi; TXA2 mimetic, FIG. 5B",can promote thrombus stability
ortho-acetylsalicylic acid [aspirin],effect of prior aspirin treatment on dethrombotic activity of a TP antagonist,preformed thrombi; FIG. 5C,prevented by prior aspirin treatment
same,levels of leukotrienes,leukotrienes,increased
same,"effect on prolongation in occlusion time by U63,557a with L636,499",coronary arteries,inhibited the prolongation in occlusion time
same,individuals developing gastroduodenal ulcers,[1]; 75-325 mg doses,1 out of 10
same,reduction in vascular events,"[1]; Antithrombotic Trialist's Collaboration, overall",22%
same,reduction in cardiovascular events,[1]; [9],15%
same,reduction in myocardial infarction,[1]; [9],36%
same,incidence of cardiovascular death,"[1]; Primary Prevention Project, 100 mg/d, at-risk patients, reduced from 1.4%",0.8%
same,reduction in adverse events,"[1]; hundreds of randomized clinical trials, at-risk patients",20-25%
same,asthmatic adults developing severe bronchoconstriction,[1]; oral challenge with aspirin or NSAID,5-20%
same,interaction with antithrombotic activity of clopidogrel,[3]; FIG. 4,synergized with the antithrombotic activity of clopidogrel
same,antithrombotic activity in P2Y12 heterozygous animals,[4],profound inhibition
same,antithrombotic activity in wild type animals,[4],at least similar antithrombotic activity
O=C(O)COc1ccc(CCNS(=O)(=O)c2ccccc2)cc1 [Sulotroban],restenosis following PTCA,"[1]; M-HEART-II study, 752 patients",no different than aspirin or placebo
same,"clinical events (death, MI or clinically important restenosis)",[1]; M-HEART-II study,inferior to aspirin
O=C(O)CCCCO/N=C(/c1cccnc1)c1cccc(C(F)(F)F)c1 [ridogrel],enhancing fibrinolytic efficacy of streptokinase,"[1]; RAPT study, 907 patients with acute myocardial infarction",not found to be superior to aspirin
same,preventing new ischaemic events,[1]; RAPT study,may have been more efficacious than aspirin
COc1ccc2c(c1)c(CC(=O)O)c(C)n2C(=O)c1ccc(Cl)cc1 [indomethacin],effect on bleeding time prolongation activity of BM 13.177 promoted by dazoxiben,[8],blocked the ability of dazoxiben
"CC(C)(C)N/C(=N\C#N)Nc1cccc(/C(=C\CCCC(=O)O)c2cccnc2)c1 [terbogrel, 5-hexenoic acid, 6-[3-[[(cyanoamino)[(1,1-dimethylethyl)amino]methylene]amino]phenyl]-6-(3-pyridinyl)-, (E-)]",antiaggregatory activities in aspirin-treated individuals,platelets [7]; Zimmermann et al.,additional antiaggregatory activities
COC(=O)[C@H](c1ccccc1Cl)N1CCc2sccc2C1 [clopidogrel],efficacy versus aspirin,[1]; CAPRIE trial,more efficacious than aspirin
same,relative risk reduction,"[1]; CURE trial, clopidogrel with aspirin vs placebo plus aspirin, unstable angina or non-ST segment elevation MI",20%
